Assay [1] addresses T1, Mitogen-activated protein kinase kinase kinase 5 (Homo sapiens, UniProt Q99683).
T1 sequence (Q99683 whole entry): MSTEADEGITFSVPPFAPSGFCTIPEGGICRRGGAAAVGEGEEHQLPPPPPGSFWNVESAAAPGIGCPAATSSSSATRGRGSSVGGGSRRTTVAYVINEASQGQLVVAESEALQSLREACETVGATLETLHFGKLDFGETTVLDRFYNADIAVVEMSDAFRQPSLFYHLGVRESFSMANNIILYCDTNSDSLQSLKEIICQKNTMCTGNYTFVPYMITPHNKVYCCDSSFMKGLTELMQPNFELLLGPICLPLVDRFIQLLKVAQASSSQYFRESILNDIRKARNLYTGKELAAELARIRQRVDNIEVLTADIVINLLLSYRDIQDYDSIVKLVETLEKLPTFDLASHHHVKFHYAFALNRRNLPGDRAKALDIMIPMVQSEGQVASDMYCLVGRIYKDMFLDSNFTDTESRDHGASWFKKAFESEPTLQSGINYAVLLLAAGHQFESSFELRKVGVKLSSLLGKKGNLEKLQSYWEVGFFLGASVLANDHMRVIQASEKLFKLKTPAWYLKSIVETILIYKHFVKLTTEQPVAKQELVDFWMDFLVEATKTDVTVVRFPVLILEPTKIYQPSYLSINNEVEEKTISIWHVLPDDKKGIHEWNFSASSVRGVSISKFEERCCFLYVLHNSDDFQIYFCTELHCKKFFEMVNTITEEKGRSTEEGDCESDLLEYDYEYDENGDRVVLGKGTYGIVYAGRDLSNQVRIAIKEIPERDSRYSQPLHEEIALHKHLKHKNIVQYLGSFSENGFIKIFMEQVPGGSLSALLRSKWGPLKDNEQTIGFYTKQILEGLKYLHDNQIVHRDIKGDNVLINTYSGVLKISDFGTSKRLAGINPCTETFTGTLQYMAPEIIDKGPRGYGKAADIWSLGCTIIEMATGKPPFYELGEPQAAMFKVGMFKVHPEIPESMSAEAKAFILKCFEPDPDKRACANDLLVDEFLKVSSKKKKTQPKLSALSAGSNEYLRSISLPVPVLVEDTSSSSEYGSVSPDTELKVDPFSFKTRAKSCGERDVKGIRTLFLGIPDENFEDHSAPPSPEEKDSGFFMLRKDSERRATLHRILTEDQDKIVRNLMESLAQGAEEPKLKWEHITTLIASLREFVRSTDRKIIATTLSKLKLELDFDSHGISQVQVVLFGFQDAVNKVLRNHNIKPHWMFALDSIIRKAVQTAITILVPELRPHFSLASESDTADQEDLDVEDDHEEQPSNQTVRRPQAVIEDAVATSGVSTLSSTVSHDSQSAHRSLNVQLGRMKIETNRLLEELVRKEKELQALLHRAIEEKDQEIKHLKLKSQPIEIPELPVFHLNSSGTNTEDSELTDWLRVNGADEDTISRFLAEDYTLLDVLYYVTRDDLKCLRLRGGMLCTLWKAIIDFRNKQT
Description: Inhibition of ASK1 (unknown origin) using myelin basic protein as substrate preincubated for 20 mins followed by 33P-ATP addition and measured after 2 hrs.

The next assay concerns the target Adenosine receptor A2a (Homo sapiens, UniProt P29274). Description: Inhibition of A2A receptor (unknown origin).
For assay [2], the target named is T2, Mitogen-activated protein kinase kinase kinase 5 (Mus musculus) (UniProt O35099).
T2 sequence (whole entry): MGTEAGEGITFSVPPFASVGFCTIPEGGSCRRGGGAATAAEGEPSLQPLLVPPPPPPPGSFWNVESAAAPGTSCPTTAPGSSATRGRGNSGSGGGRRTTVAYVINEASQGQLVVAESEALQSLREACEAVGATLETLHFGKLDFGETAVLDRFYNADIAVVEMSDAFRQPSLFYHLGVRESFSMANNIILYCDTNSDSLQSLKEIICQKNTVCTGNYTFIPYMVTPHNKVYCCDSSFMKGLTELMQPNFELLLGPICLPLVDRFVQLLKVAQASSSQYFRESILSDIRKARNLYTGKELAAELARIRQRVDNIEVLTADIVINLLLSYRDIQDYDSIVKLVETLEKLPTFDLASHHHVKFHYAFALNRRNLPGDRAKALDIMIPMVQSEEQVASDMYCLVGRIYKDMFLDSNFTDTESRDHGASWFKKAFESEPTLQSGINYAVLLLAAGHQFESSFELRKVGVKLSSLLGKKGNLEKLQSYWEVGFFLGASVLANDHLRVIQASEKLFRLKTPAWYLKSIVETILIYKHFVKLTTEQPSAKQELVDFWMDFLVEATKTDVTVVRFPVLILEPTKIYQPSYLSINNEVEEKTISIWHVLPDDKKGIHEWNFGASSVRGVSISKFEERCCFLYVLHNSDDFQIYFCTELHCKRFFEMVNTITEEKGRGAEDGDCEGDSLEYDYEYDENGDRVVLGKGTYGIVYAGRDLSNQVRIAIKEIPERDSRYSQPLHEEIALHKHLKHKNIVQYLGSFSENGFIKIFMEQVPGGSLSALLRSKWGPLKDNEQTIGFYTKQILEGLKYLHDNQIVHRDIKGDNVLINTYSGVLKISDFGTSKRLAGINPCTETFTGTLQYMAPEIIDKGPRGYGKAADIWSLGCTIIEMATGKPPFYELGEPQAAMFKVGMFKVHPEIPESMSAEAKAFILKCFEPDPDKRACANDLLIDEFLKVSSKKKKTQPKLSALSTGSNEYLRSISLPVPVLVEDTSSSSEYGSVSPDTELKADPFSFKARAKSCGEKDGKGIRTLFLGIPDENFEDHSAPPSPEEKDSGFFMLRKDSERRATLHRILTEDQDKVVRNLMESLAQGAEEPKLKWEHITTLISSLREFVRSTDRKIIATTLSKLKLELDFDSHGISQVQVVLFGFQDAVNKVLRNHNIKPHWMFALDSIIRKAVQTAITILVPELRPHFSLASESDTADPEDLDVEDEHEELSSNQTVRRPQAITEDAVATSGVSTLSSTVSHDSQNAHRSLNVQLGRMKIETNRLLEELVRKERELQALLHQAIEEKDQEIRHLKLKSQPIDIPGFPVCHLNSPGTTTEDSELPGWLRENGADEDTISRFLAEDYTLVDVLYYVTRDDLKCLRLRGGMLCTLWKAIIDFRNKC
Nature of the assay: In vivo inhibition of ASK1 in Tg4510 mouse model of Alzheimer's disease assessed as reduction in IL-1beta levels in cortex at 3 to 30 mg/kg, po BID for 3 days measured after 4 hrs post last dose by ELISA. Type of assay: functional, organism-based. The settings on record: dose 3-30 mg/kg, time 3.0 day. For orientation: In an ELISA, binding on a coated surface is turned into a signal by an enzyme label.

Assay [3] has as its target 5-hydroxytryptamine receptor 2B (Homo sapiens, UniProt P41595). Description: Inhibition of 5HT2B receptor (unknown origin).
In assay [4] the target is T2, Mitogen-activated protein kinase kinase kinase 5 (Mus musculus). Nature of the assay: In vivo inhibition of ASK1 in Tg4510 mouse model of Alzheimer's disease assessed as reduction in MCP-1 levels in cortex at 3 to 30 mg/kg, po BID for 3 days measured after 4 hrs post last dose by ELISA. The settings on record: dose 3-30 mg/kg, time 3.0 day. Type of assay: functional, organism-based.

For assay [5], the target named is T1, Mitogen-activated protein kinase kinase kinase 5. Description: Inhibition of full-length human ASK1 expressed in HEK293T cells assessed as reduction in autophosphorylation of ASK1 at […] residue incubated for 1 hr. It is filed as cell-based.
In assay [6] the target is T2, Mitogen-activated protein kinase kinase kinase 5 (Mus musculus). Nature of the assay: In vivo inhibition of ASK1 in Tg4510 mouse model of Alzheimer's disease assessed as reduction in KC/GRO levels in cortex at 3 to 30 mg/kg, po BID for 3 days measured after 4 hrs post last dose by ELISA. The settings on record: dose 3-30 mg/kg, time 3.0 day. Type of assay: functional, organism-based.

Activity calls are given as the source filed them. The calls are words filed in the database; no cut-off is given here. Where only a bound is given, the exact number is not on record here.

Chain of Adenosine receptor A2a (P29274 whole entry): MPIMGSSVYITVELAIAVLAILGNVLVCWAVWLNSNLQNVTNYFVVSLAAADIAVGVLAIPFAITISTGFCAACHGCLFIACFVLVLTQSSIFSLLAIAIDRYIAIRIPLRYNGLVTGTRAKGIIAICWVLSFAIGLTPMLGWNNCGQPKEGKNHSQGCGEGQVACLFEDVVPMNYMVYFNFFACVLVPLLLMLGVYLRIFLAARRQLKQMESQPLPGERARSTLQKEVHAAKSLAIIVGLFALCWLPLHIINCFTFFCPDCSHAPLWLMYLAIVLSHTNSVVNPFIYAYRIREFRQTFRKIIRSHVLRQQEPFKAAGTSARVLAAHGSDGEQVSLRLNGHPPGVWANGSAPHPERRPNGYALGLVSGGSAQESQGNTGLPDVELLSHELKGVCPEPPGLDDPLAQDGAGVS
Chain of 5-hydroxytryptamine receptor 2B (P41595 whole entry): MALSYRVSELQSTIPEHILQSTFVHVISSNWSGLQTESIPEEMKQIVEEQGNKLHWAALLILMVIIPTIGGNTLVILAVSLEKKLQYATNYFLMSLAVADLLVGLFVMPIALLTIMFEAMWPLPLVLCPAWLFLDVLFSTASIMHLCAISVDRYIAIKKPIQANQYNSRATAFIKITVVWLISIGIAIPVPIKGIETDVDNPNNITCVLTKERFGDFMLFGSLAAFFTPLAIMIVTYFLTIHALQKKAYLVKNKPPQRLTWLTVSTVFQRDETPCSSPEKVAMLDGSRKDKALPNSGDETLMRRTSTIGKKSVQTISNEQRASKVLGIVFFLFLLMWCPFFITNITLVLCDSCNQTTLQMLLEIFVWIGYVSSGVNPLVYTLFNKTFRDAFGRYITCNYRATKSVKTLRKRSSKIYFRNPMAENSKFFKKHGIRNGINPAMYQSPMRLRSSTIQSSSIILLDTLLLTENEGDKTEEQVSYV

A word on the IC50: it is the concentration needed to halve the response being measured. `COc1ncc(F)cc1C(=O)Nc1cccc(-c2nncn2[C@@H](C)C(F)(F)F)n1`: the IC50 in assay [1] is 7 nM; at Adenosine receptor A2a, greater than 1000 nM; in assay [3], greater than 1000 nM; in assay [5], 25 nM. Moreover, the inhibition result in assay [2], in assay [4] and in assay [6] was “Active” in each case.

For the origin of these results see ChEMBL document CHEMBL4842388, “Discovery of Potent, Selective, and Brain-Penetrant Apoptosis Signal-Regulating Kinase 1 (ASK1) Inhibitors that Modulate Brain Inflammation In Vivo” (J Med Chem, 2021).
